According to patent publication US20120122085A1, “RECQL4/RECQL4 VARIANT-P53 COMPLEX FOR ALTERED MITOCHONDRIAL FUNCTION IN ROTHMUND-THOMSON SYNDROME” (NATIONAL INSTUTUTE OF IMMUNOLOGY, priority 2009, published 2012):
“Also recorded” adds a separate entry of the source.

System: RTS patient cells
Assay: Intracellular ROS in RTS cells measured by oxidation of CM-H2DCFDA after DNA damage
Format: cell-based, human
Settings: post exposure to mitomycin C, FIG. 10E
Excerpt: By transmission electron microscopy (TEM) we observed that the mitochondrial cristae were distorted and the intercristal space expanded in all the RTS fibroblasts grown under asynchronous conditions (FIG. 10A). The extent of the cristae space is known to affect the overall chemiosmotic function in the cell (Mannella, 2006). […] Apart from ATP, mitochondria also produce the reactive oxygen species (ROS). Spontaneous ROS levels are usually low in normal cells as elevation of ROS levels can result in significant damage to cell structure (Schumacker, 2006). Indeed the level of ROS in asynchronous NHF was low as determined by the oxidation of 5-(and-6)-chloromethyl-2′,7′-dichlorodihydrofluorescein diacetate, acetyl ester (CM-H2DCFDA). […] Mitochondrial mass was determined by usage of a fluorescent dye Mitotracker Red 580 (200 nM, Invitrogen). […] The cells were subsequently washed, fixed and then analyzed in a Zeiss 510 Meta system with a 40×/0.95 Con objective. The fluorescence was captured initially for NHF and the acquisition parameters were kept unchanged for the capture of the fluorescence for the RTS cells. […] The activity was measured at 412 nm at 30° C. using 10 μg for each sample. Activity was expressed as nmole/min/mg of protein. Intracellular ROS in RTS cells was measured by the oxidation of CM-H2DCFDA (4 μM, Invitrogen). […]

Structure (SMILES): O=C1O[C@H]([C@@H](O)CO)C(O)=C1O [ascorbic acid]
- effect on abnormally high ROS levels in RTS cells after DNA damage: decreases the load of reactive oxygen species; also recorded: reversed this effect
